Test results as given in ChEMBL document CHEMBL6083262, “Stereorandomized Oncocins with Preserved Ribosome Binding and Antibacterial Activity” (J Med Chem, 2024).
Values after ≈ are worked out from the molar mass of the structure shown. Positions of bridges follow the written chain, without caps; N, C: chain ends. Non-standard residues stand in square brackets, D forms with d. Residues, ends and D or L forms follow the SMILES beside them. *: point of attachment. X1 = CC[C@H](C)CCCCC(=O)*; Orn = NCCC[C@H](N)C(=O)O; Dab = NCC[C@H](N)C(=O)O

Columns and labels:
Escherichia coli [1] = test: Antimicrobial activity against Escherichia coli W3110 incubated for 16 to 20 hrs in full muller hinton medium by broth microdilution method; format: functional; conditions: time 16-20 hrs
Klebsiella pneumoniae [2] = test: Antimicrobial activity against Klebsiella pneumoniae NCTC 418 incubated for 16 to 20 hrs in full muller hinton medium by broth microdilution method; format: functional; conditions: time 16-20 hrs
Pseudomonas aeruginosa [3] = test: Antimicrobial activity against Pseudomonas aeruginosa PAO1 incubated for 16 to 20 hrs in full muller hinton medium by broth microdilution method; format: functional; conditions: time 16-20 hrs
Acinetobacter baumannii [4] = test: Antimicrobial activity against Acinetobacter baumannii ATCC 19606 incubated for 16 to 20 hrs in full muller hinton medium by broth microdilution method; format: functional; conditions: time 16-20 hrs
Staphylococcus aureus [5] = test: Antimicrobial activity against methicillin-resistant Staphylococcus aureus COL incubated for 16 to 20 hrs in full muller hinton medium by broth microdilution method; format: functional; conditions: time 16-20 hrs
Escherichia coli [6] = test: Antimicrobial activity against Escherichia coli W3110 incubated for 16 to 20 hrs in 12.5 % muller hinton medium by broth microdilution method; format: functional; conditions: time 16-20 hrs
Klebsiella pneumoniae [7] = test: Antimicrobial activity against Klebsiella pneumoniae NCTC 418 incubated for 16 to 20 hrs in 12.5 % muller hinton medium by broth microdilution method; format: functional; conditions: time 16-20 hrs
Pseudomonas aeruginosa [8] = test: Antimicrobial activity against Pseudomonas aeruginosa PAO1 incubated for 16 to 20 hrs in 12.5 % muller hinton medium by broth microdilution method; format: functional; conditions: time 16-20 hrs
Acinetobacter baumannii [9] = test: Antimicrobial activity against Acinetobacter baumannii ATCC 19606 incubated for 16 to 20 hrs in 12.5 % muller hinton medium by broth microdilution method; format: functional; conditions: time 16-20 hrs
Staphylococcus aureus [10] = test: Antimicrobial activity against methicillin-resistant Staphylococcus aureus COL incubated for 16 to 20 hrs in 12.5 % muller hinton medium by broth microdilution method; format: functional; conditions: time 16-20 hrs
[11] = Hemolytic activity in human RBC incubated for 4 hrs; format: toxicity, cell-based; conditions: erythrocyte
Pseudomonas aeruginosa [12] = test: Antibacterial activity against multidrug-resistant Pseudomonas aeruginosa PA14 incubated for 16 to 20 hrs in full muller hinton medium by broth microdilution method; format: functional; conditions: time 16-20 hrs
Pseudomonas aeruginosa [13] = test: Antibacterial activity against multidrug-resistant Pseudomonas aeruginosa PA14 incubated for 16 to 20 hrs in 12.5 % muller hinton medium by broth microdilution method; format: functional; conditions: time 16-20 hrs
Pseudomonas aeruginosa [14] = test: Antibacterial activity against multidrug-resistant Pseudomonas aeruginosa PA14 4.13 harboring phoQ mutant incubated for 16 to 20 hrs in full muller hinton medium by broth microdilution method; format: functional; conditions: time 16-20 hrs
Pseudomonas aeruginosa [15] = test: Antibacterial activity against multidrug-resistant Pseudomonas aeruginosa PA14 4.13 harboring phoQ mutant incubated for 16 to 20 hrs in 12.5 % muller hinton medium by broth microdilution method; format: functional; conditions: time 16-20 hrs
Pseudomonas aeruginosa [16] = test: Antibacterial activity against multidrug-resistant Pseudomonas aeruginosa PA14 4.18 harboring pmrB mutant incubated for 16 to 20 hrs in full muller hinton medium by broth microdilution method; format: functional; conditions: time 16-20 hrs
Pseudomonas aeruginosa [17] = test: Antibacterial activity against multidrug-resistant Pseudomonas aeruginosa PA14 4.18 harboring pmrB mutant incubated for 16 to 20 hrs in 12.5 % muller hinton medium by broth microdilution method; format: functional; conditions: time 16-20 hrs
Pseudomonas aeruginosa [18] = test: Antibacterial activity against multidrug-resistant Pseudomonas aeruginosa PA14 2P4 harboring pmrB mutant incubated for 16 to 20 hrs in full muller hinton medium by broth microdilution method; format: functional; conditions: time 16-20 hrs
Pseudomonas aeruginosa [19] = test: Antibacterial activity against multidrug-resistant Pseudomonas aeruginosa PA14 2P4 harboring pmrB mutant incubated for 16 to 20 hrs in 12.5 % muller hinton medium by broth microdilution method; format: functional; conditions: time 16-20 hrs
Pseudomonas aeruginosa [20] = test: Antibacterial activity against multidrug-resistant Pseudomonas aeruginosa clinical isolate ZEM-1A incubated for 16 to 20 hrs in full muller hinton medium by broth microdilution method; format: functional; conditions: time 16-20 hrs
Pseudomonas aeruginosa [21] = test: Antibacterial activity against multidrug-resistant Pseudomonas aeruginosa clinical isolate ZEM-1A incubated for 16 to 20 hrs in 12.5 % muller hinton medium by broth microdilution method; format: functional; conditions: time 16-20 hrs
Pseudomonas aeruginosa [22] = test: Antibacterial activity against multidrug-resistant Pseudomonas aeruginosa clinical isolate ZEM9A incubated for 16 to 20 hrs in full muller hinton medium by broth microdilution method; format: functional; conditions: time 16-20 hrs
Pseudomonas aeruginosa [23] = test: Antibacterial activity against multidrug-resistant Pseudomonas aeruginosa clinical isolate ZEM9A incubated for 16 to 20 hrs in 12.5 % muller hinton medium by broth microdilution method; format: functional; conditions: time 16-20 hrs
Klebsiella pneumoniae [24] = test: Antibacterial activity against multidrug-resistant Klebsiella pneumoniae clinical isolate OXA-48 incubated for 16 to 20 hrs in full muller hinton medium by broth microdilution method; format: functional; conditions: time 16-20 hrs
Klebsiella pneumoniae [25] = test: Antibacterial activity against multidrug-resistant Klebsiella pneumoniae clinical isolate OXA-48 incubated for 16 to 20 hrs in 12.5 % muller hinton medium by broth microdilution method; format: functional; conditions: time 16-20 hrs
Enterobacter cloacae [26] = test: Antibacterial activity against multidrug-resistant Enterobacter cloacae incubated for 16 to 20 hrs in full muller hinton medium by broth microdilution method; format: functional; conditions: time 16-20 hrs
Enterobacter cloacae [27] = test: Antibacterial activity against multidrug-resistant Enterobacter cloacae incubated for 16 to 20 hrs in 12.5 % muller hinton medium by broth microdilution method; format: functional; conditions: time 16-20 hrs

Structure (SMILES): CC[C@H](C)[C@H](NC(=O)[C@H](CCCN)NC(=O)[C@H](CCCNC(=N)N)NC(=O)[C@@H]1CCCN1C(=O)[C@@H]1CCCN1C(=O)[C@H](CCCNC(=N)N)NC(=O)[C@@H]1CCCN1C(=O)[C@H](CCCNC(=N)N)NC(=O)[C@@H]1CCCN1C(=O)[C@H](CC(C)C)NC(=O)[C@H](Cc1ccc(O)cc1)NC(=O)[C@@H]1CCCN1C(=O)[C@@H]1CCCN1C(=O)[C@H](CCCCN)NC(=O)[C@H](CC(=O)O)NC(=O)[C@@H](N)C(C)C)C(=O)N[C@@H](Cc1ccc(O)cc1)C(=O)N[C@@H](CC(N)=O)C(=O)N[C@@H](CCCN)C(N)=O (H-VDKPPYLPRPRPPR[Orn]IYN[Orn]-NH2)
- MIC (Escherichia coli [1]): 8 µg/mL (≈ 3.47 µM)
- MIC (Klebsiella pneumoniae [2]): 8 µg/mL (≈ 3.47 µM)
- MIC (Pseudomonas aeruginosa [3]): > 64 µg/mL
- MIC (Acinetobacter baumannii [4]): 64 µg/mL (≈ 27.8 µM)
- MIC (Staphylococcus aureus [5]): > 64 µg/mL
- MIC (Escherichia coli [6]): 2 µg/mL (≈ 0.867 µM)
- MIC (Klebsiella pneumoniae [7]): 4 µg/mL (≈ 1.73 µM)
- MIC (Pseudomonas aeruginosa [8]): 16 µg/mL (≈ 6.94 µM)
- MIC (Acinetobacter baumannii [9]): 8 µg/mL (≈ 3.47 µM)
- MIC (Staphylococcus aureus [10]): > 64 µg/mL
- MHC [11]: > 1000 µg/mL
- MIC (Pseudomonas aeruginosa [12]): > 32 µg/mL
- MIC (Pseudomonas aeruginosa [13]): 32 µg/mL (≈ 13.9 µM)
- MIC (Pseudomonas aeruginosa [14]): > 32 µg/mL
- MIC (Pseudomonas aeruginosa [15]): 32 µg/mL (≈ 13.9 µM)
- MIC (Pseudomonas aeruginosa [16]): > 32 µg/mL
- MIC (Pseudomonas aeruginosa [17]): 32 µg/mL (≈ 13.9 µM)
- MIC (Pseudomonas aeruginosa [18]): > 64 µg/mL
- MIC (Pseudomonas aeruginosa [19]): 16 µg/mL (≈ 6.94 µM)
- MIC (Pseudomonas aeruginosa [20]): > 64 µg/mL
- MIC (Pseudomonas aeruginosa [21]): 16 µg/mL (≈ 6.94 µM)
- MIC (Pseudomonas aeruginosa [22]): > 64 µg/mL
- MIC (Pseudomonas aeruginosa [23]): 32 µg/mL (≈ 13.9 µM)
- MIC (Klebsiella pneumoniae [24]): 64 µg/mL (≈ 27.8 µM)
- MIC (Klebsiella pneumoniae [25]): 2 µg/mL (≈ 0.867 µM)
- MIC (Enterobacter cloacae [26]): 32 µg/mL (≈ 13.9 µM)
- MIC (Enterobacter cloacae [27]): 1 µg/mL (≈ 0.434 µM)

Structure (SMILES): CC(C)CCCCC(=O)N[C@@H](CCN)C(=O)N[C@H](C(=O)N[C@@H](CCN)C(=O)N[C@H]1CCNC(=O)[C@H]([C@@H](C)O)NC(=O)[C@H](CCN)NC(=O)[C@H](CCN)NC(=O)[C@H](CC(C)C)NC(=O)[C@@H](Cc2ccccc2)NC(=O)[C@H](CCN)NC1=O)[C@@H](C)O.CC[C@H](C)CCCCC(=O)N[C@@H](CCN)C(=O)N[C@H](C(=O)N[C@@H](CCN)C(=O)N[C@H]1CCNC(=O)[C@H]([C@@H](C)O)NC(=O)[C@H](CCN)NC(=O)[C@H](CCN)NC(=O)[C@H](CC(C)C)NC(=O)[C@@H](Cc2ccccc2)NC(=O)[C@H](CCN)NC1=O)[C@@H](C)O (X1-[Dab]T[Dab][Dab][Dab][dF]L[Dab][Dab]T; lactam 4-C)
- MIC (Escherichia coli [1]): 0.25 µg/mL
- MIC (Klebsiella pneumoniae [2]): 0.5 µg/mL
- MIC (Pseudomonas aeruginosa [3]): 0.5 µg/mL
- MIC (Acinetobacter baumannii [4]): 0.25 µg/mL
- MIC (Staphylococcus aureus [5]): > 16 µg/mL
- MIC (Escherichia coli [6]): 0.2 µg/mL
- MIC (Klebsiella pneumoniae [7]): 1 µg/mL
- MIC (Pseudomonas aeruginosa [8]): 1 µg/mL
- MIC (Acinetobacter baumannii [9]): 0.5 µg/mL
- MIC (Staphylococcus aureus [10]): 16 µg/mL
- MIC (Pseudomonas aeruginosa [12]): > 0.5 µg/mL
- MIC (Pseudomonas aeruginosa [13]): 1 µg/mL
- MIC (Pseudomonas aeruginosa [14]): 2 µg/mL
- MIC (Pseudomonas aeruginosa [15]): 2 µg/mL
- MIC (Pseudomonas aeruginosa [16]): 2 µg/mL
- MIC (Pseudomonas aeruginosa [17]): 1 µg/mL
- MIC (Pseudomonas aeruginosa [18]): 4 µg/mL
- MIC (Pseudomonas aeruginosa [19]): 1 µg/mL
- MIC (Pseudomonas aeruginosa [20]): 16 µg/mL
- MIC (Pseudomonas aeruginosa [21]): 8 µg/mL
- MIC (Pseudomonas aeruginosa [22]): > 64 µg/mL
- MIC (Pseudomonas aeruginosa [23]): 2 µg/mL
- MIC (Klebsiella pneumoniae [24]): 1 µg/mL
- MIC (Klebsiella pneumoniae [25]): 1 µg/mL
- MIC (Enterobacter cloacae [26]): 2 µg/mL
- MIC (Enterobacter cloacae [27]): 1 µg/mL
